Experimental findings from US4639452A, “Arylic derivatives of piperazine, the method of preparing same and their application in therapeutics” (Delalande S.A., priority 1982, dated 1987) are described below.

Series [1] can be described thus: approximate acute toxicity (MILLER and TAINTER). The conditions noted are these: mouse, in vivo, mice. As to the method: The approximate acute toxicity is determined according to the method described by MILLER and TAINTER in Proc. Soc. Exp. Biol. Med. 57, 261 (1944).
A further series concerns male SWISS-WEBSTER mice. Briefly: mnesic retention test of exploratory activity (APELAB ACTIMETER). In kind it is in vivo. The conditions noted are these: re-measured after a week; for inhibition in vivo at 10 mg/kg: dose 10 mg/kg i.v.
The mark [2] stands for this setting: Mus musculus, iv, 168 h, dose 3 mg/kg i.v., read-out: Mnesic test: % reduction of the exploratory activity.
Setting [3] is: Mus musculus, iv, 168 h, read-out: Mnesic test: % reduction of the exploratory activity.
Where [4] appears, read: Mus musculus, iv, 168 h, dose 1 mg/kg i.v., read-out: Mnesic test: % reduction of the exploratory activity.

Regarding `O=C(/C=C/c1ccc(Cl)c(Cl)c1)N1CCN(CC(=O)N2CCCC2)CC1` [compound 40], the mortality in series [1] (iv, dose 120 mg/kg i.v.) was 50%. The inhibition in vivo at 3 mg/kg in the series with male SWISS-WEBSTER mice (setting [2]) was found to be 28.9%.

As for `COc1cc(/C=C/C(=O)N2CCN(CC(=O)NCc3cc(OC)c(OC)c(OC)c3)CC2)cc(OC)c1OC` [compound 29], the mortality in series [1] (iv, dose 200 mg/kg i.v.) worked out at 0%. Moreover, the inhibition in vivo at 3 mg/kg with male SWISS-WEBSTER mice (setting [2]) worked out at 9.9%.

Turning to `COc1cc(/C=C/C(=O)N2CCN(CC(=O)NC(C)C)CC2)ccc1O` [compound 26], the inhibition in vivo at 10 mg/kg in the series on male SWISS-WEBSTER mice (setting [3]) came out at 14.3%.

As for `O=C(/C=C/c1ccc2c(c1)OCO2)N1CCN(CC(=O)N2CCCCC2)CC1` [compound 55], in the series with male SWISS-WEBSTER mice (setting [2]), the inhibition in vivo at 3 mg/kg amounted to 18.7%.

`O=C(/C=C/c1ccc2c(c1)OCO2)N1CCN(CC(=O)N2CCCC2)CC1` [compound 37]: the mortality in series [1] (ip, dose 400 mg/kg i.p.) turned out to be 0%. The inhibition in vivo at 1 mg/kg in the series on male SWISS-WEBSTER mice (setting [4]) stood at 25.2%.

In series [1] (iv, dose 200 mg/kg i.v.), `COc1cc(/C=C/C(=O)N2CCN(CC(N)=O)CC2)cc(OC)c1OC` [Code number 11, trans-1-(3,4,5-trimethoxy)cinnamoyl 4-aminocarbonylmethyl piperazine] registered a mortality of 0%. In the series with male SWISS-WEBSTER mice (setting [2]), the inhibition in vivo at 3 mg/kg turned out to be 28.4%.

As to `O=C(/C=C/c1ccc(Cl)cc1)N1CCN(CC(=O)N2CCCC2)CC1` [compound 47], the mortality in series [1] (iv, dose 200 mg/kg i.v.) came out at 0%. Further, the inhibition in vivo at 1 mg/kg in the series with male SWISS-WEBSTER mice (setting [4]) is 26.5%.

Regarding `COc1cc(/C=C/C(=O)N2CCN(CC(=O)N3CCCC3)CC2)cc(OC)c1` [compound 43], in the series with male SWISS-WEBSTER mice (setting [3]), the inhibition in vivo at 10 mg/kg was found to be 23.8%.

As for “trans-1-(3,4-methylenedioxy)cinnamoyl 4-pyrrolidinocarbonyl piperazine, hydrochloride [Code number 37]”, the “Mnesic test: % reduction of the exploratory activity” value with male SWISS-WEBSTER mice (dose 1 mg/kg i.v.) worked out at 14.7%.

For the compound `COc1ccc(OC)c(/C=C/C(=O)N2CCN(CC(=O)N3CCCC3)CC2)c1` [compound 49], the mortality in series [1] (iv, dose 205 mg/kg i.v.) is 50%. Moreover, in the series with male SWISS-WEBSTER mice (setting [4]), the inhibition in vivo at 1 mg/kg worked out at 15.7%.

Compound `O=C(/C=C/c1ccc(F)cc1)N1CCN(CC(=O)N2CCCC2)CC1` [compound 38] registered a mortality in series [1] (iv, dose 200 mg/kg i.v.) of 10%. Moreover, in the series with male SWISS-WEBSTER mice (setting [2]), the inhibition in vivo at 3 mg/kg was 28.6%.

The compound `O=C(/C=C/c1ccccc1)N1CCN(CC(=O)N2CCCC2)CC1` [compound 36] displayed a mortality in series [1] (iv, dose 200 mg/kg i.v.) of 0%. Besides, the inhibition in vivo at 10 mg/kg with male SWISS-WEBSTER mice (setting [3]) amounted to 18.4%.

Consider `COc1cc(/C=C/C(=O)N2CCN(CC(=O)NC3CCCC3)CC2)cc(OC)c1OC` [compound 23], for which the mortality in series [1] (iv, dose 200 mg/kg i.v.) turned out to be 0%. For the same compound, the inhibition in vivo at 3 mg/kg in the series with male SWISS-WEBSTER mice (setting [2]) is 18.4%.

On to “trans-1-(3,4,5-trimethoxy)cinnamoyl 4-(2-hydroxy)ethyl piperazine maleate [Code number 2]”, for which the “Mnesic test: % reduction of the exploratory activity” value with male SWISS-WEBSTER mice (dose 3 mg/kg i.v.) worked out at 17.5%.

For the compound `COc1ccccc1/C=C/C(=O)N1CCN(CC(=O)N2CCCC2)CC1` [compound 48], in series [1] (iv, dose 200 mg/kg i.v.), the mortality worked out at 0%. For the same compound, in the series with male SWISS-WEBSTER mice (Mus musculus, iv, 168 h, dose 30 mg/kg i.v., read-out: Mnesic test: % reduction of the exploratory activity), the inhibition in vivo at 30 mg/kg is 26.1%.

As to `O=C(/C=C/c1ccc(Cl)cc1)N1CCN(CC(=O)N2CCCCC2)CC1` [compound 56], the inhibition in vivo at 3 mg/kg in the series on male SWISS-WEBSTER mice (setting [2]) is 23.5%.
